# Patent US20090036455A1, “ARYLPIPERAZINE DERIVATIVE AND USE THEREOF AS 5-HT1A RECEPTOR LIGANDS” (CEPA SCHWARZ PHARMA, S.L., priority 2004, published 2009)
# Counter-ions that a name gives are not always drawn. Like-named read-outs stand apart in the source and are kept apart here.
# Columns and labels:
# 5-HT1A receptor = molecular target: T1, 5-HT1A receptor (Rattus norvegicus, UniProt P19327); experiment: Radioligand binding assay, 5-HT1A receptor ([3H]-8-OH-DPAT, rat cerebral cortex membranes); details: for binding to the 5-HT1A receptor (in words): see table 1
# T1 construct: The cerebral cortex was homogenized in 10 volumes of ice-cold Tris buffer; from tissue; host or cells: rat cerebral cortex membranes
# T1 sequence (P19327 1-422): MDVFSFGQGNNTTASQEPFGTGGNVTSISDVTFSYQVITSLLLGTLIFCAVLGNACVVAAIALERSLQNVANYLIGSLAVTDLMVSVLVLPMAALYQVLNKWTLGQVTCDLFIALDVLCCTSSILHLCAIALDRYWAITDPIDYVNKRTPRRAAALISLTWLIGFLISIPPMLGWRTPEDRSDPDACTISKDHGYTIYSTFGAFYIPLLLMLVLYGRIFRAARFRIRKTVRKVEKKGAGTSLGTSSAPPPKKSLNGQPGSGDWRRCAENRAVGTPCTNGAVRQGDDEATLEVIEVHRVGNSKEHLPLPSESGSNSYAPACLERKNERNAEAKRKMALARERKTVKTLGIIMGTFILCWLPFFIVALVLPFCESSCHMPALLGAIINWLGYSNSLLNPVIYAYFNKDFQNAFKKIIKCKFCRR
# Description: (§1) For all receptor binding assays, male Sprague-Dawley rats (Rattus norvegicus albinus), weighing 180-200 g, were killed by decapitation and the brains rapidly removed and dissected. Tissues were stored at −80° C. for subsequent use and homogenized on a Polytron PT-10 homogenizer. Membrane suspensions were centrifuged on a Beckman J2-HS instrument.
# The cerebral cortex was homogenized in 10 volumes of ice-cold Tris buffer (50 mM Tris-HCl, pH 7.7 at 25° C.) and centrifuged at 28000 g for 15 min. The membrane pellet was washed twice by resuspension and centrifugation. After the second wash the resuspended pellet was incubated at 37° C. for 10 min. Membranes were then collected by centrifugation and the final pellet was resuspended in 50 mM Tris-HCl, 5 mM MgSO4, and 0.5 mM EDTA buffer (pH 7.4 at 37° C.). Fractions of 100 μL of the final membrane suspension (about 1 mg of protein) were incubated at 37° C. for 15 min with 0.6 nM [^3]-8-OH-DPAT (133 Ci/mmol), in the presence or absence of the competing drug, in a final volume of 1.1 mL of assay buffer (50 mM Tris-HCl, 10 nM clonidine, 30 nM prazosin, pH 7.4 at 37° C.). Nonspecific binding was determined with 10 μM 5-HT.
# (§2) For all binding assays, competing drug, nonspecific, total and radioligand bindings were defined in triplicate. Incubation was terminated by rapid vacuum filtration through Whatman GF/B filters, presoaked in 0.05% poly(ethylenimine), using a Brandel cell harvester. The filters were then washed with the assay buffer, dried and placed in poly(ethylene) vials to which were added 4 mL of a scintillation cocktail (Aquasol). The radioactivity bound to the filters was measured by liquid scintillation spectrometry. The data were analyzed by an iterative curve-fitting procedure (program Prism, Graph Pad), which provided IC50, Ki, and r^2 values for test compounds, Ki values being calculated from the Cheng and Prusoff equation. The protein concentrations of the rat cerebral cortex and the rat striatum were determined by the method of Lowry, using bovine serum albumin as the standard.
# α1 adrenoceptor = experiment: Radioligand binding assay, α1 adrenoceptor ([3H]prazosin, rat cerebral cortex membranes); details: for Ki / percent value (α1): rat cerebral cortex membranes; for Ki: 0.2 nM [3H]prazosin, hydrochloride salts, read-out: Ki ± SEM (α1); for percent value (α1): [3H]prazosin, footnote to * not given; for binding to the α1 adrenoceptor (in words): see table 1
# Description: as §1
# The cerebral cortex was homogenized in 20 volumes of ice-cold buffer (50 mM Tris-HCl, 10 mM MgCl2, pH 7.4 at 25° C.) and centrifuged at 30000 g for 15 min. Pellets were washed twice by resuspension and centrifugation. Final pellets were resuspended in the same buffer. Fractions of the final membrane suspension (about 250 μg of protein) were incubated at 25° C. for 30 min with 0.2 nM [^3H]prazosin (23 Ci/mmol), in the presence or absence of six concentrations of the competing drug, in a final volume of 2 mL of buffer. Nonspecific binding was determined with 10 μM phentolamine.
# as §2
# [1] = rat cerebral cortex membranes, 0.6 nM [3H]-8-OH-DPAT, hydrochloride salts, read-out: Ki ± SEM (5-HT1A)
Ki (5-HT1A receptor; [1]),Ki (α1 adrenoceptor),percent value (α1) (α1 adrenoceptor),SMILES,further results
–,–,–,"O=C1C2CCCN2C(=O)CN1CCCCN1CCN(c2cccc3ccccc23)CC1 (centres unmarked) (as salt: hydrochloride) [Compound (g), 2-[4-[4-(Naphth-1-yl)piperazin-1-yl]butyl]-1,4-dioxoperhydropyrrolo[1,2-a]pyrazine]",melting point: 277 to 280 °C (dec.)
–,–,–,"O=C1C2CCCN2C(=O)CN1CCCCN1CCN(c2cccc3c2OCCCO3)CC1 (centres unmarked) (as salt: hydrochloride) [Compound (h), 2-[4-[4-(3,4-Dihydro-2H-1,5-benzodioxepin-6-yl)piperazin-1-yl]butyl]-1,4-dioxoperhydropyrrolo[1,2-a]pyrazine]",melting point: 212 to 213 °C (dec.)
4.2 ± 0.9 nM,20.1 ± 0.8 nM,–,"C[C@@H]1CN(c2cccc3ccccc23)CCN1CCCCN1CC(=O)N2CCCC2C1=O (mixture of isomers) [(a), (2R, 8aRS)-2-[4-[4-(Naphth-1-yl)-2-methylpiperazin-1-yl]butyl]-1,4-dioxoperhydropyrrolo[1,2-a]pyrazine]",–
15.3 ± 1.8 nM,34.4 ± 1.2 nM,–,"C[C@H]1CN(c2cccc3ccccc23)CCN1CCCCN1CC(=O)N2CCCC2C1=O (mixture of isomers) [(b), (2S, 8aRS)-2-[4-[4-(Naphth-1-yl)-2-methylpiperazin-1-yl]butyl]-1,4-dioxoperhydropyrrolo[1,2-a]pyrazine]",–
11.7 ± 3.4 nM,–,76%*,"C[C@@H]1CN(c2cccc(Cl)c2)CCN1CCCN1C(=O)C2CCCN2C1=O (mixture of isomers) [(i), (2R,7aRS)-(−)-2-[3-[4-(3-Chlorophenyl)-2-methylpiperazin-1-yl]propyl]-1,3-dioxoperhydropyrrolo[1,2-c]imidazole]",–
21.9 ± 5.1 nM,–,56%*,"COc1cccc(N2CCN(CCCN3C(=O)C4CCCN4C3=O)[C@@H](C)C2)c1 (mixture of isomers) [(j), (2S,7aRS)-(+)-2-[3-[4-(3-Methoxyphenyl)-2-methylpiperazin-1-yl]propyl]-1,3-dioxoperhydropyrrolo[1,2-c]imidazole]",–
6.7 ± 0.5 nM,–,64%*,"C[C@H]1CN(c2cccc3ccoc23)CCN1CCCN1C(=O)C2CCCN2C1=O (mixture of isomers) [(k), (2S,7aRS)-(−)-2-[3-[4-(1-Benzofuran-7-yl)-2-methylpiperazin-1-yl]propyl]-1,3-dioxoperhydropyrrolo[1,2-c]imidazole]",–
2.4 ± 0.3 nM,–,87%*,"CC[C@@H]1CN(c2cccc3ccccc23)CCN1CCCCN1C(=O)C2CCCN2C1=O (mixture of isomers) [(l), (2R,7aRS)-(−)-2-[4-[2-Ethyl-4-(naphth-1-yl)piperazin-1-yl]butyl]-1,3-dioxoperhydropyrrolo [1,2-c]imidazole]",–
2.3 ± 0.3 nM,> 1000 nM,–,"C[C@@H]1CN(c2cccc3nc[nH]c23)CCN1CCCCN1C(=O)C2CCCN2C1=O (mixture of isomers) [(m), (2R,7aRS)-(−)-2-[4-[4-(Benzimidazol-4-yl)-2-methylpiperazin-1-yl]butyl]-1,3-dioxoperhydropyrrolo[1,2-c]imidazole]",–
21 ± 3 nM,–,64%*,"CC[C@@H]1CN(c2cccc(OC)c2)CCN1CCCCN1C(=O)C2CCCN2C1=O (mixture of isomers) [(o), (2R,7aRS)-(−)-2-[4-[2-Ethyl-4-(3-methoxyphenyl)piperazin-1-yl]butyl]-1,3-dioxoperhydropyrrolo[1,2-c]imidazole]",–
–,–,75%*,"Cc1ccc(N2CCN(CCCCN3C(=O)C4CCCN4C3=O)[C@@H](C)C2)c2ccccc12 (mixture of isomers) [(p), (2S,7aRS)-(+)-2-[4-[2-Methyl-4-(4-methylnaphth-1-yl)piperazin-1-yl]butyl]-1,3-dioxoperhydropyrrolo[1,2-c]imidazole]",Ki (5-HT1A receptor): 15.3 ± 0.8 nM
22.1 ± 0.1 nM,–,62%*,"C[C@H]1CN(c2ccccc2)CCN1CCCCN1C(=O)C2CCCN2C1=O (mixture of isomers) [(q), (2S,7aRS)-(+)-2-[4-[2-Methyl-4-phenylpiperazin-1-yl]butyl]-1,3-dioxoperhydropyrrolo[1,2-c]imidazole]",–
4.1 ± 0.3 nM,> 1000 nM,–,"C[C@H]1CN(c2cccc3nc[nH]c23)CCN1CCCCN1C(=O)C2CCCN2C1=O (mixture of isomers) [(r), (2S,7aRS)-(+)-2-[4-[4-(Benzimidazol-4-yl)-2-methylpiperazin-1-yl]butyl]-1,3-dioxoperhydropyrrolo[1,2-c]imidazole]",–
–,–,66%*,"C[C@H]1CN(c2ccc([N+](=O)[O-])c3ccccc23)CCN1CCCCN1C(=O)C2CCCN2C1=O (mixture of isomers) [(s), (2S,7aRS)-(+)-2-[4-[2-Methyl-4-(4-nitronaphth-1-yl)piperazin-1-yl]butyl]-1,3-dioxoperhydropyrrolo[1,2-c]imidazole]","percent value marked * in column Ki ± SEM (5-HT1A) (5-HT1A receptor; rat cerebral cortex membranes, [3H]-8-OH-DPAT, footnote to * not given): 87%*"
9.5 ± 2.2 nM,> 1000 nM,–,"C[C@@H]1CN(c2cccc3ccccc23)CCN1CN1CC(=O)N2CCC[C@@H]2C1=O [(c), (2R,8aR)-2-[[4-(Naphth-1-yl)-2-methylpiperazin-1-yl]methyl]-1,4-dioxoperhydropyrrolo[1,2-a]pyrazine]",–
2.5 ± 0.1 nM,> 1000 nM,–,"C[C@H]1CN(c2cccc3ccccc23)CCN1CN1CC(=O)N2CCC[C@H]2C1=O [(d), (2S,8aS)-2-[[4-(Naphth-1-yl)-2-methylpiperazin-1-yl]methyl]-1,4-dioxoperhydropyrrolo[1,2-a]pyrazine]",–
6.3 ± 0.2 nM,> 1000 nM,–,"C[C@@H]1CN(c2cccc3ccccc23)CCN1CN1CC(=O)N2CCC[C@H]2C1=O [(e), (2R,8aS)-2-[[4-(Naphth-1-yl)-2-methylpiperazin-1-yl]methyl]-1,4-dioxoperhydropyrrolo[1,2-a]pyrazine]",–
6.4 ± 0.1 nM,> 1000 nM,–,"C[C@H]1CN(c2cccc3ccccc23)CCN1CN1CC(=O)N2CCC[C@@H]2C1=O [(f), (2S,8aR)-2-[[4-(Naphth-1-yl)-2-methylpiperazin-1-yl]methyl]-1,4-dioxoperhydropyrrolo[1,2-a]pyrazine]",–
1.6 ± 0.4 nM,–,75%*,"C[C@H]1CN(c2cccc3ccoc23)CCN1CCCCN1C(=O)[C@@H]2CCCN2C1=O [(n), (2S,7aS)-(+)-2-[4-[4-(1-Benzofuran-7-yl)-2-methylpiperazin-1-yl]butyl]-1,3-dioxoperhydropyrrolo[1,2-c]imidazole]",–
0.5 ± 0.2 nM,8 ± 1.7 nM,–,"O=C1C2CCCN2C(=O)CN1CCCCN1CCN(c2cccc3ccccc23)CC1 (centres unmarked) [Compound (g), 2-[4-[4-(Naphth-1-yl)piperazin-1-yl]butyl]-1,4-dioxoperhydropyrrolo[1,2-a]pyrazine]",binding to the 5-HT1A receptor (in words) (5-HT1A receptor): picomolar range; binding to the α1 adrenoceptor (in words) (α1 adrenoceptor): low nanomolar range
3.1 ± 0.9 nM,348 ± 21 nM,–,"O=C1C2CCCN2C(=O)CN1CCCCN1CCN(c2cccc3c2OCCCO3)CC1 (centres unmarked) [Compound (h), 2-[4-[4-(3,4-Dihydro-2H-1,5-benzodioxepin-6-yl)piperazin-1-yl]butyl]-1,4-dioxoperhydropyrrolo[1,2-a]pyrazine]",binding to the 5-HT1A receptor (in words) (5-HT1A receptor): low nanomolar range; binding to the α1 adrenoceptor (in words) (α1 adrenoceptor): nanomolar range
